Measured values reported in paper PMC10620772, “Design, synthesis, and biological evaluation of new pyrimidine-5-carbonitrile derivatives as novel anti-cancer, dual EGFR^WT/COX-2 inhibitors with docking studies” (RSC Advances, 2023).

Columns and labels:
Experiment in all cases: NCI60 antitumor screening
Type in all cases: cell-based, human
LOX IMVI = test system: LOX IMVI
SK-MEL-5 = test system: SK-MEL-5
MOLT-4 = test system: MOLT-4
MDA-MB-468 = test system: MDA-MB-468
A498 = test system: A498
786–0 = test system: 786–0
HCT-116 = test system: HCT-116
SK-MEL-28 = test system: SK-MEL-28
OVCAR-3 = test system: OVCAR-3
SR = test system: SR
PC-3 = test system: PC-3
CCRF-CEM = test system: CCRF-CEM
NCI/ADR-RES = test system: NCI/ADR-RES
MDA-MB-231/ATCC = conditions: Homo sapiens; 10 μM single dose; MDA-MB-231/ATCC (breast cancer); read-out: growth inhibition percent (GI%)
K-562 = conditions: Homo sapiens
[1] = Homo sapiens, MDA-MB-468, five-dose

N#Cc1c(-c2ccc(F)cc2)nc(SCc2ccccc2)nc1N1CCNCC1 [4e, 2-(Benzylthio)-4-(4-fluorophenyl)-6-(piperazin-1-yl) pyrimidine-5-carbonitrile]
GI50 (LOX IMVI; Homo sapiens, LOX IMVI, five-dose): 1.71 µM | CC50 (LOX IMVI; Homo sapiens, LOX IMVI, five-dose, read-out: LC50 (the source's name)): 6.48 µM | inhibition at 10 µM (LOX IMVI; Homo sapiens, 10 μM single dose, LOX IMVI (melanoma), read-out: growth inhibition percent (GI%)): > 100% | TGI (LOX IMVI; five-dose): 3.33 µM | GI50 (SK-MEL-5; Homo sapiens, SK-MEL-5, five-dose): 15.7 µM | CC50 (SK-MEL-5; Homo sapiens, SK-MEL-5, five-dose, read-out: LC50 (the source's name)): 54.5 µM | inhibition at 10 µM (SK-MEL-5; Homo sapiens, 10 μM single dose, SK-MEL-5 (melanoma), read-out: growth inhibition percent (GI%)): > 100% | TGI (SK-MEL-5; five-dose): 29.20 µM | GI50 (MOLT-4; Homo sapiens, MOLT-4, five-dose): 7.07 µM | CC50 (MOLT-4; Homo sapiens, MOLT-4, five-dose, read-out: LC50 (the source's name)): 52.7 µM | inhibition at 10 µM (MOLT-4; Homo sapiens, 10 μM single dose, MOLT-4 (leukaemia), read-out: growth inhibition percent (GI%)): > 100% | TGI (MOLT-4; five-dose): 21.20 µM | GI50 (MDA-MB-468; [1]): 6.71 µM | LC50 (MDA-MB-468; [1]): 51.6 µM | inhibition at 10 µM (MDA-MB-468; Homo sapiens, 10 μM single dose, MDA-MB-468 (breast cancer), read-out: growth inhibition percent (GI%)): > 100% | TGI (MDA-MB-468; five-dose): 21.30 µM | GI50 (A498; Homo sapiens, A498, five-dose): 13.1 µM | LC50 (A498; Homo sapiens, A498, five-dose): 56.9 µM | inhibition at 10 µM (A498; Homo sapiens, 10 μM single dose, A498 (renal cancer), read-out: growth inhibition percent (GI%)): > 100% | TGI (A498; five-dose): 27.30 µM | GI50 (786–0; Homo sapiens, 786-0, five-dose): 11 µM | LC50 (concentration killing 50% of tumour cells) (786–0; Homo sapiens, 786-0, five-dose): 58.9 µM | inhibition at 10 µM (786–0; Homo sapiens, 10 μM single dose, 786–0 (renal cancer), read-out: growth inhibition percent (GI%)): > 100% | TGI (786–0; five-dose): 25.40 µM | GI50 (HCT-116; Homo sapiens, HCT-116, five-dose): 3.51 µM | CC50 (HCT-116; Homo sapiens, HCT-116, five-dose, read-out: LC50 (the source's name)): 38.1 µM | inhibition at 10 µM (HCT-116; Homo sapiens, 10 μM single dose, HCT-116 (colon cancer), read-out: growth inhibition percent (GI%)): > 100% | TGI (HCT-116; five-dose): 11.60 µM | GI50 (SK-MEL-28; Homo sapiens, SK-MEL-28, five-dose): 16.3 µM | CC50 (SK-MEL-28; Homo sapiens, SK-MEL-28, five-dose, read-out: LC50 (the source's name)): 56.3 µM | inhibition at 10 µM (SK-MEL-28; Homo sapiens, 10 μM single dose, SK-MEL-28 (melanoma), read-out: growth inhibition percent (GI%)): > 100% | TGI (SK-MEL-28; five-dose): 30.30 µM | GI50 (OVCAR-3; Homo sapiens, OVCAR-3, five-dose): 14.3 µM | CC50 (OVCAR-3; Homo sapiens, OVCAR-3, five-dose, read-out: LC50 (the source's name)): 59.1 µM | inhibition at 10 µM (OVCAR-3; Homo sapiens, 10 μM single dose, OVCAR-3 (ovarian cancer), read-out: growth inhibition percent (GI%)): > 100% | TGI (OVCAR-3; five-dose): 29.10 µM | GI50 (SR; Homo sapiens, SR, five-dose): 1.92 µM | CC50 (SR; Homo sapiens, SR, five-dose, read-out: LC50 (the source's name)): 13.8 µM | inhibition at 10 µM (SR; Homo sapiens, 10 μM single dose, SR (leukaemia), read-out: growth inhibition percent (GI%)): > 100% | TGI (SR; five-dose): 4.61 µM | GI50 (PC-3; Homo sapiens, PC-3, five-dose): 11.8 µM | CC50 (PC-3; Homo sapiens, PC-3, five-dose, read-out: LC50 (the source's name)): 56.4 µM | inhibition at 10 µM (PC-3; Homo sapiens, 10 μM single dose, PC-3 (prostate cancer), read-out: growth inhibition percent (GI%)): > 100% | TGI (PC-3; five-dose): 25.80 µM | GI50 (CCRF-CEM; Homo sapiens, CCRF-CEM, five-dose): 13.9 µM | CC50 (CCRF-CEM; Homo sapiens, CCRF-CEM, five-dose, read-out: LC50 (the source's name)): 69 µM | inhibition at 10 µM (CCRF-CEM; Homo sapiens, 10 μM single dose, CCRF-CEM (leukaemia), read-out: growth inhibition percent (GI%)): > 100% | TGI (CCRF-CEM; five-dose): 31.00 µM | GI50 (NCI/ADR-RES; Homo sapiens, NCI/ADR-RES, five-dose): 11.7 µM | CC50 (NCI/ADR-RES; Homo sapiens, NCI/ADR-RES, five-dose, read-out: LC50 (the source's name)): 64.4 µM | inhibition at 10 µM (NCI/ADR-RES; Homo sapiens, 10 μM single dose, NCI/ADR-RES (ovarian cancer), read-out: growth inhibition percent (GI%)): > 100% | TGI (NCI/ADR-RES; five-dose): 27.40 µM | inhibition at 10 µM (MDA-MB-231/ATCC): > 100% | GI50 (K-562; K562, five-dose): 2.21 µM | CC50 (K-562; K562, five-dose, read-out: LC50 (the source's name)): 18.7 µM | inhibition at 10 µM (K-562; 10 μM single dose, (leukaemia), read-out: growth inhibition percent (GI%)): > 100%
